Measurements as given in article PMC7480105, “Wbox2: A clathrin terminal domain–derived peptide inhibitor of clathrin-mediated endocytosis” (The Journal of Cell Biology, 2020).

Experiments:
cytotoxicity = tested on: cytotoxicity; set-up: method as in Rosselli-Murai et al., 2018; details: ref Rosselli-Murai et al., 2018; cited from earlier work
[1] = tested on: TfnR uptake via CME in ARPE/HPV cells; assay: TfnR uptake (in-cell ELISA) after peptide preincubation; format: cell-based; details: 60-min preincubation at 37°C (Fig. 7 F), TAT at concentrations <100 µM
Procedure: Peptides encoding the TAT sequence (YGRKKRRQRRR) followed by 10 amino acid sequences covering the four reported binding sites on the clathrin terminal domain (Fig. 7 A) were synthesized by GenScript (Piscataway, NJ) with >95% purity. Peptides were dissolved in dH2O and further diluted in PBS4+ (1× PBS buffer plus 0.2% BSA, 1 mM CaCl2, 1 mM MgCl2, and 5 mM D-glucose) or cell culture medium (for imaging) when applied to cells. Peptide solutions were stored at −20°C.
Internalization of TfnR, CD44, CD59, and Biotin-Tfn was quantified by in-cell ELISA following established protocols ([Conner and Schmid, 2003]; [Srinivasan et al., 2018]). Cells were seeded in 96-well plates (Costar) at 60–70% confluence and grown overnight. Before the assay, cells were starved for 30 min in PBS4+ at 37°C or treated with peptides in PBS4+ at 37°C for the indicated times. After starvation, cells were moved to 4°C, and culture medium was replaced with cold PBS4+ containing 5 µg/ml HTR-D65 (anti-TfnR mAb; [Schmid and Smythe, 1991]), anti-human CD44 or anti-human CD59 (BD PharMingen) or 5 µg/ml Biotin-Tfn (Sigma-Aldrich). For single-round assays, the above reagents were kept with cells for 20 min at 4°C and then washed out before uptake assay. For multiround assays, the above reagents were kept with cells throughout the uptake process. In parallel, some cells were kept at 4°C for the measurement of surface-bound ligands and blank controls, and some were incubated in a 37°C water bath for the indicated times. Acid wash (0.2 M acetic acid and 0.2 M NaCl, pH 2.3) was used to remove surface-bound antibodies, followed by washing with cold PBS. All were fixed with 4% PFA (Electron Microscopy Sciences) in PBS for 30 min at 37°C. 0.1% Triton X-100 was added for 6.5 min to permeabilize cells, followed by addition of blocking buffer. HTR-D65–, CD44-, and CD59-treated cells were blocked with Q-PBS (PBS, 2% BSA, 0.1% lysine, and 0.01% saponin, pH 7.4), and Biotin-Tfn–treated cells were blocked with 2% casein. Surface-bound and internalized HTR-D65, CD44, and CD59 were probed with goat anti-mouse antibody conjugated with HRP (Sigma-Aldrich), and Biotin-Tfn was probed with Streptavidin-POD conjugate (Sigma-Aldrich). Color was developed using o-phenylenediamine dihydrochloride (OPD) solution (Sigma-Aldrich), and absorbance was read at 490 nm (Biotek Synergy H1 Hybrid Reader). Cell number variation among wells was accounted for by bicinchoninic acid assay reading at 562 nm.

SNX9 = SNX9 (Homo sapiens, UniProt Q9Y5X1); assay: Isothermal titration calorimetry with SNX9; format: binding; details: ITC, 1.8 mM peptide injected into 50 µM SNX9
SNX9, sequence (Q9Y5X1 whole entry, species assumed): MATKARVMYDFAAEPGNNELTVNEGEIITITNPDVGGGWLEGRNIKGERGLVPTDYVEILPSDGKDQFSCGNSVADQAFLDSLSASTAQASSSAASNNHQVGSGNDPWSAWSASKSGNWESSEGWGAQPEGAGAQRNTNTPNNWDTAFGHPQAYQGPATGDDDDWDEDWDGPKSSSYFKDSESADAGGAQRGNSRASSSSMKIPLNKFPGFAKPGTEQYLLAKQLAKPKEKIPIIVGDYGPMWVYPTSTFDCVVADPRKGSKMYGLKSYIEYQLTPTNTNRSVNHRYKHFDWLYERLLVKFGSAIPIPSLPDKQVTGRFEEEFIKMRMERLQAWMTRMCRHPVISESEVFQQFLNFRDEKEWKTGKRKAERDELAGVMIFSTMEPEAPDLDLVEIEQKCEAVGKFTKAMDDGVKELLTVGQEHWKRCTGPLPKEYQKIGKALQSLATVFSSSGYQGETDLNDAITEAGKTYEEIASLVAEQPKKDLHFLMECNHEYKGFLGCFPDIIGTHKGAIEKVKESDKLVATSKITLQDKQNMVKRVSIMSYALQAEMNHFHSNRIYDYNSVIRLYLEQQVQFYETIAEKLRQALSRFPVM
Source text: GUSSI was further used to output the figures presented.

TD–AP2 interactions = assay: GST-TD (1–580) pulldown of AP2 from mouse brain extract; format: biochemical; details: increasing peptide concentrations, overnight at 4°C, Western blot, three independent runs (Fig. 9 B, C)
Procedure: A mouse brain was homogenized using a Dounce tissue grinder (Sartorius) in 1 ml MES buffer (100 mM Mes, 1 mM EGTA, 0.5 mM MgCl2, and 0.1 mM PMSF, pH 6.4). After spinning at 5,000 g and 4°C for 3 min, the supernatant was ultracentrifuged at 110,000 g for 60 min. The resulting pellet was then resuspended in extraction buffer (3 vol of 1 M Tris, pH 8, 1 vol Mes buffer, with added PMSF and DTT to 0.1 mM each) for 30 min at room temperature. The resuspended solution was ultracentrifuged at 110,000 g for 60 min to collect supernatant containing released coat proteins. The brain extract buffer was exchanged to pulldown reaction buffer (50 mM Tris, 150 mM NaCl, and 0.1 mM EGTA, pH 7.5) using zeba spin desalting columns (Thermo Fisher Scientific).
In the pulldown assay, 75 µg GST-TD (residues 1–580) in reaction buffer was mixed with coat protein fractions (10% of total extract from a mouse brain) and the indicated concentrations of peptides. The mixture was incubated with 50 µl of a 50% slurry of glutathione Sepharose 4B beads (ABT) and left to rotate overnight at 4°C. Subsequently, beads were collected by spinning down at 1,000 g for 2 min and washed twice with reaction buffer. The beads were resuspended in Laemmli sample buffer and denatured at 95°C before running on 7.5% SDS-PAGE and Western blotting.

Row | Substance | cytotoxic concentration relative to CME-inhibitory concentration (cytotoxicity) | inhibitory activity on TfnR uptake, concentration curve [1] | interaction with SNX9 compared with Wbox2 (SNX9) | inhibition of AP2 pulldown by GST-TD (TD–AP2 interactions)
1 | pitstop | cytotoxic at concentrations only approximately twofold higher |  |  | 
2 | YGRKKRRQRRR [TAT, arginine-rich TAT peptide, negative control, reference compound] |  | did not inhibit | much weaker interactions | much weaker inhibition
